Experiments:
HIS-AXL 473-End = HIS-AXL 473-End (Homo sapiens (Human), UniProt P30530); test: AXL kinase homogeneous time resolved fluorescence (HTRF) binding assay; conditions: 1 nM kinase, fluorescein-labeled kinase tracer at Kd, 60 minutes at room temperature
Method: (§1) MERTK, AXL, TYRO3 Kinase Homogeneous Time Resolved Fluorescence (HTRF) Assay
(§2) Assays were performed in black, flat-bottom, 1536-well plates. The reactions were incubated at room temperature for 60 minutes, following which the HTRF signals, ratio of fluorescence intensities at emission wavelengths for fluorescein acceptor (520 nm) and terbium donor (495 nm), the 520/495 ratio, were measured on the Envision Plate reader. Inhibition data were calculated from the 520/495 ratio generated by the no protein control reactions for 100% inhibition and vehicle-only reactions for 0% inhibition, and dose response curves generated to determine the concentration required for inhibiting 50% of the HTRF signal (IC50). Compounds were dissolved at 10 mM in dimethylsulfoxide (DMSO) and evaluated at eleven concentrations.

GST-MERTK 578-872 = GST-MERTK 578-872 (Homo sapiens (Human), UniProt Q12866); test: MERTK kinase homogeneous time resolved fluorescence (HTRF) binding assay; conditions: 1 nM kinase, fluorescein-labeled kinase tracer at Kd, 60 minutes at room temperature; read-out: Mer HTRF IC50
Method: as §1, §2

Chain of GST-MERTK 578-872 (Q12866 578-872): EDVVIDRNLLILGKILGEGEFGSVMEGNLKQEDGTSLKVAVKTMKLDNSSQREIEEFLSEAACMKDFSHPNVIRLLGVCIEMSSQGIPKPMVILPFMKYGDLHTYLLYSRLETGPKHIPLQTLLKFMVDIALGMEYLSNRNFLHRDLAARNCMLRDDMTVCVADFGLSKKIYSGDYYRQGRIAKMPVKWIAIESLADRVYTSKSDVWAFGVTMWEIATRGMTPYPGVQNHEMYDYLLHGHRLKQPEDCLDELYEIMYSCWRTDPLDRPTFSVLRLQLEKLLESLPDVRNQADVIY
Chain of HIS-AXL 473-End (P30530 473-894): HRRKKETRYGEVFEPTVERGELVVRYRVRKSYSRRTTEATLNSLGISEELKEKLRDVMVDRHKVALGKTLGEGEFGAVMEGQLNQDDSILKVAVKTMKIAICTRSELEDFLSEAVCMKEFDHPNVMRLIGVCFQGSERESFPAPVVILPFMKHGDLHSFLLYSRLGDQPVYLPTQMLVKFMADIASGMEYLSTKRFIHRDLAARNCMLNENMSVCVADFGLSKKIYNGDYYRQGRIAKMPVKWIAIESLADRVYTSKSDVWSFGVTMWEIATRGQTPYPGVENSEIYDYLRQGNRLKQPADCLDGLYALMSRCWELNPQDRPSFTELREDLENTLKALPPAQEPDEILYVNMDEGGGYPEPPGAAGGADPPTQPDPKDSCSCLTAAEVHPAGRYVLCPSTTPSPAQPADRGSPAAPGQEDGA

IC50 (HIS-AXL 473-End) [nM] | IC50 (GST-MERTK 578-872) [nM] | SMILES
1.1 | 5.8 | CC(C)n1cc(C(=O)Nc2ccc(Oc3ccnc(Nc4ccc(C(N)=O)cn4)c3)c(F)c2)c(=O)n(-c2ccc(F)cc2)c1=O [Example 16]
2.7 | 1.9 | CC(C)n1cc(C(=O)Nc2ccc(Oc3ccnc(Nc4ccc(C(=O)N(C)C)cn4)c3)c(F)c2)c(=O)n(-c2ccc(F)cc2)c1=O [Example 17]
11 | 18 | CC(C)n1cc(C(=O)Nc2ccc(Oc3ccnc(Nc4ccc(S(C)(=O)=O)cn4)c3)c(F)c2)c(=O)n(-c2ccc(F)cc2)c1=O [Example 18]
1.6 | 4.4 | CC(C)n1cc(C(=O)Nc2ccc(Oc3ccnc(Nc4ccc(S(N)(=O)=O)cn4)c3)c(F)c2)c(=O)n(-c2ccc(F)cc2)c1=O [Example 19]
4.7 | 12 | CC(C)n1cc(C(=O)Nc2ccc(Oc3ccnc(Nc4ccc(S(=O)(=O)N(C)C)cn4)c3)c(F)c2)c(=O)n(-c2ccc(F)cc2)c1=O [Example 20]
39 | 164 | CC(C)n1cc(C(=O)Nc2ccc(Oc3ccnc(Nc4ccc(N5CCOCC5)cn4)c3)c(F)c2)c(=O)n(-c2ccc(F)cc2)c1=O [Example 21]
8.9 | 49 | CC(C)n1cc(C(=O)Nc2ccc(Oc3ccnc(Nc4cc(N5CCOCC5)ccn4)c3)c(F)c2)c(=O)n(-c2ccc(F)cc2)c1=O [Example 22]
5.6 | 12 | CC(C)n1cc(C(=O)Nc2ccc(Oc3ccnc(Nc4ccc(-n5ccnc5)cn4)c3)c(F)c2)c(=O)n(-c2ccc(F)cc2)c1=O [Example 24]
3.6 | 13 | CC(C)n1cc(C(=O)Nc2ccc(Oc3ccnc(Nc4ccc5cc[nH]c5n4)c3)c(F)c2)c(=O)n(-c2ccc(F)cc2)c1=O [Example 25]
6.8 | 19 | Cc1cnc(Nc2cc(Oc3ccc(NC(=O)c4cn(C(C)C)c(=O)n(-c5ccc(F)cc5)c4=O)cc3F)ccn2)cn1 [Example 27]
7.4 | 20 | CCc1cnc(Nc2cc(Oc3ccc(NC(=O)c4cn(C(C)C)c(=O)n(-c5ccc(F)cc5)c4=O)cc3F)ccn2)cn1 [Example 28]
7.2 | 182 | CCOc1cnc(Nc2cc(Oc3ccc(NC(=O)c4cn(C(C)C)c(=O)n(-c5ccc(F)cc5)c4=O)cc3F)ccn2)cn1 [Example 29]
48 | 165 | CC(C)n1cc(C(=O)Nc2ccc(Oc3ccnc(Nc4ncc(C(F)(F)F)cn4)c3)c(F)c2)c(=O)n(-c2ccc(F)cc2)c1=O [Example 30]
7.5 | 158 | Cc1cnc(Nc2cc(Oc3ccc(NC(=O)c4cn(C(C)C)c(=O)n(-c5ccc(F)cc5)c4=O)cc3F)ccn2)nc1 [Example 31]
0.9 | 342 | CCc1cnc(Nc2cc(Oc3ccc(NC(=O)c4cn(C(C)C)c(=O)n(-c5ccc(F)cc5)c4=O)cc3F)ccn2)nc1 [Example 32]
19 | 67 | COC(=O)Cc1csc(Nc2cc(Oc3ccc(NC(=O)c4cn(C(C)C)c(=O)n(-c5ccc(F)cc5)c4=O)cc3F)ccn2)n1 [Example 33]
0.8 | 4.3 | CC(C)n1cc(C(=O)Nc2ccc(Oc3ccnc(Nc4ccn(C(F)F)n4)c3)c(F)c2)c(=O)n(-c2ccc(F)cc2)c1=O [Example 35, N-{4-[(2-{[1-(Difluoromethyl)-1H-pyrazol-3-yl]amino}pyridin-4-yl)oxy]-3-fluorophenyl}-3-(4-fluorophenyl)-2,4-dioxo-1-(propan-2-yl)-1,2,3,4-tetrahydropyrimidine-5-carboxamide]
11 | 38 | O=C(Nc1ccc(Oc2ccnc(Nc3ccc(Cl)cn3)c2)c(F)c1)c1cn(C2CC2)c(=O)n(-c2ccc(F)cc2)c1=O [Example 36, N-[4-({2-[(5-chloropyridin-2-yl)amino]pyridin-4-yl}oxy)-3-fluorophenyl]-1-cyclopropyl-3-(4-fluorophenyl)-2,4-dioxo-1,2,3,4-tetrahydropyrimidine-5-carboxamide]
2.6 | 14 | CC(C)n1cc(C(=O)Nc2ccc(Oc3ccnc(Nc4ccc(S(C)(=O)=O)cn4)c3)c(F)c2)c(=O)n(-c2ccc(F)cn2)c1=O [Example 37, N-[3-Fluoro-4-({2-[(5-methanesulfonylpyridin-2-yl)amino]pyridin-4-yl}oxy)phenyl]-3-(5-fluoropyridin-2-yl)-2,4-dioxo-1-(propan-2-yl)-1,2,3,4-tetrahydropyrimidine-5-carboxamide]
3.5 | 16 | Cn1cc(C(=O)Nc2ccc(Oc3ccnc(Nc4ccc(S(C)(=O)=O)cn4)c3)c(F)c2)c(=O)n(-c2ccc(F)cc2)c1=O [Example 38]
3.8 | 11 | CN(C)S(=O)(=O)c1ccc(Nc2cc(Oc3ccc(NC(=O)c4cn(C5CC5)c(=O)n(-c5ccc(F)cc5)c4=O)cc3F)ccn2)nc1 [Example 40, 1-Cyclopropyl-N-{4-[(2-{[5-(dimethylsulfamoyl)pyridin-2-yl]amino}pyridin-4-yl)oxy]-3-fluorophenyl}-3-(4-fluorophenyl)-2,4-dioxo-1,2,3,4-tetrahydropyrimidine-5-carboxamide]
– | 6.7 | C[C@H](CO)n1cc(C(=O)Nc2ccc(Oc3ccnc(Nc4ccc(S(=O)(=O)N(C)C)cn4)c3)c(F)c2)c(=O)n(-c2ccc(F)cc2)c1=O [Example 55]
– | 17 | C[C@H](CO)n1cc(C(=O)Nc2ccc(Oc3ccnc(Nc4ccc(S(=O)(=O)N(C)C)cn4)c3)c(F)c2)c(=O)n(-c2ccc(F)cc2)c1=O [Example 56]

The remaining lines, values behind:

SMILES | IC50 (HIS-AXL 473-End) [nM] | IC50 (GST-MERTK 578-872) [nM]
CC(C)n1cc(C(=O)Nc2ccc(Oc3ccnc(Nc4ccc(C#N)cn4)c3)c(F)c2)c(=O)n(-c2ccc(F)cc2)c1=O [Example 1, N-[4-({2-[(5-cyanopyridin-2-yl)amino]pyridin-4-yl}oxy)-3-fluorophenyl]-3-(4-fluorophenyl)-2,4-dioxo-1-(propan-2-yl)-1,2,3,4-tetrahydropyrimidine-5-carboxamide] | 2.9 | 14
CC(C)n1cc(C(=O)Nc2ccc(Oc3ccnc(Nc4ncc(Cl)cc4F)c3)c(F)c2)c(=O)n(-c2ccc(F)cc2)c1=O [Example 3] | 1730 | 59
Cc1ccc(Nc2cc(Oc3ccc(NC(=O)c4cn(C(C)C)c(=O)n(-c5ccc(F)cc5)c4=O)cc3F)ccn2)nc1 [Example 4] | 4.4 | 32
CCc1ccc(Nc2cc(Oc3ccc(NC(=O)c4cn(C(C)C)c(=O)n(-c5ccc(F)cc5)c4=O)cc3F)ccn2)nc1 [Example 5] | 24 | 56
Cc1cnc(Nc2cc(Oc3ccc(NC(=O)c4cn(C(C)C)c(=O)n(-c5ccc(F)cc5)c4=O)cc3F)ccn2)cc1C [Example 6] | 7.9 | 37
Cc1ccc(Nc2cc(Oc3ccc(NC(=O)c4cn(C(C)C)c(=O)n(-c5ccc(F)cc5)c4=O)cc3F)ccn2)nc1Cl [Example 7] | 21 | 82
CC(C)n1cc(C(=O)Nc2ccc(Oc3ccnc(Nc4cccc(C(F)(F)F)n4)c3)c(F)c2)c(=O)n(-c2ccc(F)cc2)c1=O [Example 9] | 29 | 16
CC(C)n1cc(C(=O)Nc2ccc(Oc3ccnc(Nc4ccc(C(F)F)cn4)c3)c(F)c2)c(=O)n(-c2ccc(F)cc2)c1=O [Example 10] | 15 | 43
CC(C)n1cc(C(=O)Nc2ccc(Oc3ccnc(Nc4ccc(OC(F)(F)F)cn4)c3)c(F)c2)c(=O)n(-c2ccc(F)cc2)c1=O [Example 11] | 53 | 128
CC(C)n1cc(C(=O)Nc2ccc(Oc3ccnc(Nc4ncc(C(F)(F)F)cc4F)c3)c(F)c2)c(=O)n(-c2ccc(F)cc2)c1=O [Example 12] | 55 | 228
COC(=O)c1ccc(Nc2cc(Oc3ccc(NC(=O)c4cn(C(C)C)c(=O)n(-c5ccc(F)cc5)c4=O)cc3F)ccn2)nc1 [Example 14, Methyl 6-((4-(2-fluoro-4-(3-(4-fluorophenyl)-1-isopropyl-2,4-dioxo-1,2,3,4-tetrahydropyrimidine-5-carboxamido)phenoxy)pyridin-2-yl)amino)nicotinate] | 3.6 | 11
CC(C)n1cc(C(=O)Nc2ccc(Oc3ccnc(Nc4ccc(C(C)(C)O)cn4)c3)c(F)c2)c(=O)n(-c2ccc(F)cc2)c1=O [Example 15] | 1.7 | 8
CC(C)n1cc(C(=O)Nc2ccc(Oc3ccnc(Nc4ccc(-c5nccs5)cn4)c3)c(F)c2)c(=O)n(-c2ccc(F)cc2)c1=O [Example 23] | 31 | 55
CC(C)n1cc(C(=O)Nc2ccc(Oc3ccnc(Nc4cnc(C#N)cn4)c3)c(F)c2)c(=O)n(-c2ccc(F)cc2)c1=O [Example 26] | 18 | 60
CC(C)NC(=O)c1ccc(Nc2cc(Oc3ccc(NC(=O)c4cn(C(C)C)c(=O)n(-c5ccc(F)cc5)c4=O)cc3F)ccn2)nc1 [Example 94] | – | 3.5
CC(C)n1cc(C(=O)Nc2ccc(Oc3ccnc(Nc4ccnc(N5CCCC5)n4)c3)c(F)c2)c(=O)n(CC2CC2)c1=O [Example 110] | – | 1.6
CC(C)n1cc(C(=O)Nc2ccc(Oc3ccnc(Nc4ccnc(N5CCCC5)n4)c3)c(F)c2)c(=O)n(CC2CCCCC2)c1=O [Example 111] | – | 14
COC(=O)N1CCN(c2nc(Nc3cc(Oc4ccc(NC(=O)c5cn(C(C)C)c(=O)n(Cc6ccccc6)c5=O)cc4F)ccn3)ccc2C#N)CC1 [Example 130] | – | 7.1
CC(C)n1cc(C(=O)Nc2ccc(Oc3ccnc(Nc4ccc(C#N)c(N5CCC(O)(C(F)(F)F)CC5)n4)c3)c(F)c2)c(=O)n(Cc2ccccc2)c1=O [Example 132] | – | 12
